Article PMC3961306, “Comparison of the Cancer Gene Targeting and Biochemical Selectivities of All Targeted Kinase Inhibitors Approved for Clinical Use” (PLoS ONE, 2014)

Experiments:
Assay in all cases: Kinase profiling in a biochemical assay panel (mobility shift assays and ELISA), %-inhibition at 1 μM; selectivity entropy
[1] = target: T1, panel of more than 300 wild-type and mutant kinases (313 kinase panel) (Homo sapiens, UniProt Q8IWQ3); conditions: kinase BRSK2; 1 μM compound
T1 sequence (Q8IWQ3 1-736): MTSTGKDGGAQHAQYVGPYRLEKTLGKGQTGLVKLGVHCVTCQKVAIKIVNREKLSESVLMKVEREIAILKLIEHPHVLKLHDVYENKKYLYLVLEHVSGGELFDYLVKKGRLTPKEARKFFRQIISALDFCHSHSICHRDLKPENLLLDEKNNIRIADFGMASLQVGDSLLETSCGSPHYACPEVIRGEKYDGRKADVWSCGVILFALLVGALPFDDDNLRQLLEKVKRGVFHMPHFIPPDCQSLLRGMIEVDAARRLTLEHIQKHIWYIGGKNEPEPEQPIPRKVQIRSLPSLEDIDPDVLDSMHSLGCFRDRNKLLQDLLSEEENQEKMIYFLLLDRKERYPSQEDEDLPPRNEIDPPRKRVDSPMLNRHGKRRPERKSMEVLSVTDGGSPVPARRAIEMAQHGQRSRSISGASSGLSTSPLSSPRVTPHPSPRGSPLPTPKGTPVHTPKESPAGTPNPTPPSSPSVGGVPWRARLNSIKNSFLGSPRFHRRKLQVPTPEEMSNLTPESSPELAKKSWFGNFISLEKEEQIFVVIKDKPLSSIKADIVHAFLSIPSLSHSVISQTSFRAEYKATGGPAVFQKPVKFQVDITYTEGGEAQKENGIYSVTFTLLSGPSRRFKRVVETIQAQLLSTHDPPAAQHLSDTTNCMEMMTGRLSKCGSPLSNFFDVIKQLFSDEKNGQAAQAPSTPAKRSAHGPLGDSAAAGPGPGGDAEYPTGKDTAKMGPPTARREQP

[2] = target: panel of more than 300 wild-type and mutant kinases (313 kinase panel) (Homo sapiens, UniProt P54756)
[3] = target: T2, panel of more than 300 wild-type and mutant kinases (313 kinase panel) (Homo sapiens, UniProt P45985); conditions: kinase MAP2K4; compound at 1 μM
T2 sequence (P45985 1-399): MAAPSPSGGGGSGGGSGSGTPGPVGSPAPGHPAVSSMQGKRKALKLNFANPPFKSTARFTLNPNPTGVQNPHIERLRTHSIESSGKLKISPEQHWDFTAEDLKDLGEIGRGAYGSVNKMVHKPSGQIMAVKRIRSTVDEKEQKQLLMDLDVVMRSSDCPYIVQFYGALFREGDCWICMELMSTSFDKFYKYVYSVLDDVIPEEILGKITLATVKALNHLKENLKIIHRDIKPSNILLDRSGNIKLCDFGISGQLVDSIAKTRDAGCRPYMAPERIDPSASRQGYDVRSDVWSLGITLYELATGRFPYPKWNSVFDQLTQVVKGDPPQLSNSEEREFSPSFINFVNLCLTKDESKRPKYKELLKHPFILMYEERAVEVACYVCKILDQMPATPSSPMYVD

[4] = target: panel of more than 300 wild-type and mutant kinases (313 kinase panel) (Homo sapiens, UniProt P04049)
[5] = target: panel of more than 300 wild-type and mutant kinases (313 kinase panel) (Homo sapiens, UniProt P78362); conditions: kinase SRPK2; 1 μM
[6] = target: panel of more than 300 wild-type and mutant kinases (313 kinase panel) (Homo sapiens, UniProt P42685); conditions: kinase FRK; compound at 1 μM
[7] = target: panel of more than 300 wild-type and mutant kinases (313 kinase panel) (Homo sapiens, UniProt P80192); conditions: kinase MLK1; 1 μM
[8] = target: T3, panel of more than 300 wild-type and mutant kinases (313 kinase panel) (Homo sapiens, UniProt P29320)
T3 sequence (P29320 21-983): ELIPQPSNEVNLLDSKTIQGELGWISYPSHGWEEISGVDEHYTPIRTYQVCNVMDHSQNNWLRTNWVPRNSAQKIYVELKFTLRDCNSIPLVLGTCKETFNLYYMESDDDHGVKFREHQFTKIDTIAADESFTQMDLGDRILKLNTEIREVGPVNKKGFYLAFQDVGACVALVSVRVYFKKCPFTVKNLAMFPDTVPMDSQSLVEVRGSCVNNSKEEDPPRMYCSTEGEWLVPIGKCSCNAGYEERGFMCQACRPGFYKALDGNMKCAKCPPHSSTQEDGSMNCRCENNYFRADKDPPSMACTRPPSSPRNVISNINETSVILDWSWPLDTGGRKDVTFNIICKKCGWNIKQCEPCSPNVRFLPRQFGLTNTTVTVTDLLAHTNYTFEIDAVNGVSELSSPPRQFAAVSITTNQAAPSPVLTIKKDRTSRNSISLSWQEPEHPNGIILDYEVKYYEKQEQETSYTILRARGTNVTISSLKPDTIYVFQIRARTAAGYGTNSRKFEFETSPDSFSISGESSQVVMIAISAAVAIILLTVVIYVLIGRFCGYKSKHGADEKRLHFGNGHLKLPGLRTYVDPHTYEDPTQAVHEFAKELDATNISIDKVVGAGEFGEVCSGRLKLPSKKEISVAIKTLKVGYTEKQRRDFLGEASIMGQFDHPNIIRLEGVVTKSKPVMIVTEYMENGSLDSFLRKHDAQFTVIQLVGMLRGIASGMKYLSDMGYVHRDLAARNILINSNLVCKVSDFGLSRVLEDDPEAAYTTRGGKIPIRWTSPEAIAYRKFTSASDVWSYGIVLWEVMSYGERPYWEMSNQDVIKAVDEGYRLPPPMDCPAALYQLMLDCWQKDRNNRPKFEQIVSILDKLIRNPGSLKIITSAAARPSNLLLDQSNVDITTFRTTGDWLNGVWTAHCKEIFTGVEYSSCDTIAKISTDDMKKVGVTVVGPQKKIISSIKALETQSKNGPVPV

Chain of panel of more than 300 wild-type and mutant kinases (313 kinase panel) (Homo sapiens, UniProt P04049) (P04049 whole entry, change not shown): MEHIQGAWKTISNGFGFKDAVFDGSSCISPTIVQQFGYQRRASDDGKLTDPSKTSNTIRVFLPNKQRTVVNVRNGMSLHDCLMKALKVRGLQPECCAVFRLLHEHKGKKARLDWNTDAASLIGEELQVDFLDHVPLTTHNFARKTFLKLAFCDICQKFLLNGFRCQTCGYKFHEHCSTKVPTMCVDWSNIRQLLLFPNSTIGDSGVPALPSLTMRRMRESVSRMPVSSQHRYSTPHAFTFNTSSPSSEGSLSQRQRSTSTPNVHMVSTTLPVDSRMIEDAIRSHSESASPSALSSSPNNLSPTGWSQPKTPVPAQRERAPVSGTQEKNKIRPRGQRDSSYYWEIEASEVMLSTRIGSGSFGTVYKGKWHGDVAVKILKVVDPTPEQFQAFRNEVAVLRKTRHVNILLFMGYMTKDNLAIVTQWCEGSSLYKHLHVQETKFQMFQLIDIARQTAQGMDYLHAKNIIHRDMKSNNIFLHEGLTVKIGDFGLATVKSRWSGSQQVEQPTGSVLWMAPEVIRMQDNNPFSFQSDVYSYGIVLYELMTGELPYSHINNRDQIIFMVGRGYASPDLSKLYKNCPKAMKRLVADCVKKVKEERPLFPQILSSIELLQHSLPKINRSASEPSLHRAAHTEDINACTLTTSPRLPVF
Chain of panel of more than 300 wild-type and mutant kinases (313 kinase panel) (Homo sapiens, UniProt P80192) (P80192 whole entry, change not shown): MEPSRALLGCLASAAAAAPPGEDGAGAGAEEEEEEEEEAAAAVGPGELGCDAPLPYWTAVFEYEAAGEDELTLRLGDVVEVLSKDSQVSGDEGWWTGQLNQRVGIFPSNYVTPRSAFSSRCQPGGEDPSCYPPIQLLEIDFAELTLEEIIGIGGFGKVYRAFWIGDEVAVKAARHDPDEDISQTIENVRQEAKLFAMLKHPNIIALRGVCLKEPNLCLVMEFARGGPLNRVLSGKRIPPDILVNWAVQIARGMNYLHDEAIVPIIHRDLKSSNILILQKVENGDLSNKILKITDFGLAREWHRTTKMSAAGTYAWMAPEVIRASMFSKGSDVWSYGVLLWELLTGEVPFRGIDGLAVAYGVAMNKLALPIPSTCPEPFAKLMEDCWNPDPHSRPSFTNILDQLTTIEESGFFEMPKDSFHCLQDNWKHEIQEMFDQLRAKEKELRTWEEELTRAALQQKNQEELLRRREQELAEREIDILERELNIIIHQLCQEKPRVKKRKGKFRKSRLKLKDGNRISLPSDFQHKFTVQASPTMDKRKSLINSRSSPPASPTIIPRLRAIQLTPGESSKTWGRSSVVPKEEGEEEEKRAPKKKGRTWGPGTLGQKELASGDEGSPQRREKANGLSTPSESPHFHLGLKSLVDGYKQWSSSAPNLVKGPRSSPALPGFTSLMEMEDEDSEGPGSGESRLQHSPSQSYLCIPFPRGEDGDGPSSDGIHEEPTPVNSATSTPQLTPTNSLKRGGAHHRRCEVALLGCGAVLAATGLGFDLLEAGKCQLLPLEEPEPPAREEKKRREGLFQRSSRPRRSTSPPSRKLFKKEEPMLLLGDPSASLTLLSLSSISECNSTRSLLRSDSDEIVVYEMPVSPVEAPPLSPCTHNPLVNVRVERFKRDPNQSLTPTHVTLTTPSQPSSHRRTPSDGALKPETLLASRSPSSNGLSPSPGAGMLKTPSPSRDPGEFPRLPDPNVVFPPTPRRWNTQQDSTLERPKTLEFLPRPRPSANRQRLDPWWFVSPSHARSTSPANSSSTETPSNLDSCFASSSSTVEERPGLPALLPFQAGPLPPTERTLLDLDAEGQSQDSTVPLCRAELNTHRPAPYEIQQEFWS
Chain of panel of more than 300 wild-type and mutant kinases (313 kinase panel) (Homo sapiens, UniProt P42685) (P42685 whole entry, change not shown): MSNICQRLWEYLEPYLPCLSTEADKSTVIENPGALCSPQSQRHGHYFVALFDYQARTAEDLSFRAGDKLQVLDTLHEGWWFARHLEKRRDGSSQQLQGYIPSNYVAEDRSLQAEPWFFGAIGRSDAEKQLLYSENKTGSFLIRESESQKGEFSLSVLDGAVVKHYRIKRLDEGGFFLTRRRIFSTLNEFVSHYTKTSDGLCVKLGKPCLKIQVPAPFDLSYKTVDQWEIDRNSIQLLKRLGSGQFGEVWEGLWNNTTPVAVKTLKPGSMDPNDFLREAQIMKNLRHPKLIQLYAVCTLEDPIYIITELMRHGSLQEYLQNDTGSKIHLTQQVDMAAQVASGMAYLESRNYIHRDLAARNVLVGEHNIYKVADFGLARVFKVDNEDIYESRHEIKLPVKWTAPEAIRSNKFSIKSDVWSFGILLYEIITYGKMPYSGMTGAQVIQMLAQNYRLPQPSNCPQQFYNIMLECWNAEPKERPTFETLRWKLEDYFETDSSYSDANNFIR

## CO[C@H]1C[C@@H]2CC[C@@H](C)[C@@](O)(O2)C(=O)C(=O)N2CCCC[C@H]2C(=O)O[C@H]([C@H](C)C[C@@H]2CC[C@@H](OC(=O)C(C)(CO)CO)[C@H](OC)C2)CC(=O)[C@H](C)/C=C(\C)[C@@H](O)[C@@H](OC)C(=O)[C@H](C)C[C@H](C)/C=C/C=C/C=C/1C [temsirolimus]
[1]
  %-inhibition, BRSK2: -9%
[2]; kinase EPHA5, compound at 1 μM
  %-inhibition of EPHA5: -3.79%
[3]
  %-inhibition of MAP2K4: 8.51%
[4]; kinase RAF1, 1 μM
  %-inhibition of RAF1: -0.648%
[5]
  %-inhibition of SRPK2: -3.79%
[6]
  %-inhibition of FRK: -11%
[7]
  %-inhibition of MLK1: 7.48%
[8]; kinase EPHA3, compound at 1 μM
  %-inhibition of EPHA3: -21%

## CNC(=O)c1cc(Oc2ccc(NC(=O)Nc3ccc(Cl)c(C(F)(F)F)c3)c(F)c2)ccn1 [regorafenib]
[1]
  %-inhibition, BRSK2: -15%
[2]; kinase EPHA5, compound at 1 μM
  %-inhibition of EPHA5: 97%
[3]
  %-inhibition of MAP2K4: 0.434%
[4]; kinase RAF1, 1 μM
  %-inhibition of RAF1: 96%
[5]
  %-inhibition of SRPK2: 5%
[6]
  %-inhibition of FRK: 90%
[7]
  %-inhibition of MLK1: -7%
[8]; kinase EPHA3, compound at 1 μM
  %-inhibition of EPHA3: 80%

## CO[C@H]1C[C@@H]2CC[C@@H](C)[C@@](O)(O2)C(=O)C(=O)N2CCCC[C@H]2C(=O)O[C@H]([C@H](C)C[C@@H]2CC[C@@H](OCCO)[C@H](OC)C2)CC(=O)[C@H](C)/C=C(\C)[C@@H](O)[C@@H](OC)C(=O)[C@H](C)C[C@H](C)/C=C/C=C/C=C/1C [everolimus]
[1]
  %-inhibition, BRSK2: -0.919%
[2]; kinase EPHA5, compound at 1 μM
  %-inhibition of EPHA5: -1.69%
[3]
  %-inhibition of MAP2K4: 1.55%
[4]; kinase RAF1, 1 μM
  %-inhibition of RAF1: 14%
[5]
  %-inhibition of SRPK2: -10%
[6]
  %-inhibition of FRK: 1.26%
[7]
  %-inhibition of MLK1: 5%
[8]; kinase EPHA3, compound at 1 μM
  %-inhibition of EPHA3: -20%

## COc1cc2nccc(Oc3ccc(NC(=O)C4(C(=O)Nc5ccc(F)cc5)CC4)cc3)c2cc1OC [cabozantinib]
[1]
  %-inhibition, BRSK2: 5.62%
[2]; kinase EPHA5, compound at 1 μM
  %-inhibition of EPHA5: 99%
[3]
  %-inhibition of MAP2K4: -0.379%
[4]; kinase RAF1, 1 μM
  %-inhibition of RAF1: 48%
[5]
  %-inhibition of SRPK2: 0.2%
[7]
  %-inhibition of MLK1: 20%
[8]; kinase EPHA3, compound at 1 μM
  %-inhibition of EPHA3: 97%

## Cc1nc(Nc2ncc(C(=O)Nc3c(C)cccc3Cl)s2)cc(N2CCN(CCO)CC2)n1 [dasatinib]
[3]
  %-inhibition of MAP2K4: -3.71%

## COc1cc2c(Nc3ccc(Br)cc3F)ncnc2cc1OCC1CCN(C)CC1 [vandetanib]
[1]
  %-inhibition, BRSK2: -10%
[2]; kinase EPHA5, compound at 1 μM
  %-inhibition of EPHA5: 89%
[3]
  %-inhibition of MAP2K4: -2.77%
[4]; kinase RAF1, 1 μM
  %-inhibition of RAF1: 41%
[5]
  %-inhibition of SRPK2: -9%
[6]
  %-inhibition of FRK: 79%
[7]
  %-inhibition of MLK1: 42%
[8]; kinase EPHA3, compound at 1 μM
  %-inhibition of EPHA3: 57%

## CC(C)(C)c1nc(-c2cccc(NS(=O)(=O)c3c(F)cccc3F)c2F)c(-c2ccnc(N)n2)s1 [dabrafenib]
[1]
  %-inhibition, BRSK2: 30%
[3]
  %-inhibition of MAP2K4: -3%
[4]; kinase RAF1, 1 μM
  %-inhibition of RAF1: 99%
[5]
  %-inhibition of SRPK2: 11%
[6]
  %-inhibition of FRK: 81%
[8]; kinase EPHA3, compound at 1 μM
  %-inhibition of EPHA3: 18%

## Cc1ccc(Nc2nccc(N(C)c3ccc4c(C)n(C)nc4c3)n2)cc1S(N)(=O)=O [pazopanib]
[1]
  %-inhibition, BRSK2: -2.18%
[2]; kinase EPHA5, compound at 1 μM
  %-inhibition of EPHA5: 32%
[4]; kinase RAF1, 1 μM
  %-inhibition of RAF1: 85%
[5]
  %-inhibition of SRPK2: -4%
[7]
  %-inhibition of MLK1: 90%
[8]; kinase EPHA3, compound at 1 μM
  %-inhibition of EPHA3: 10%

## N#CC[C@H](C1CCCC1)n1cc(-c2ncnc3[nH]ccc23)cn1 [ruxolitinib]
[1]
  %-inhibition, BRSK2: -12%
[2]; 1 µM
  %-inhibition of EPHA5: 18%
[3]
  %-inhibition of MAP2K4: 10%
[4]; 1 µM
  %-inhibition of RAF1: 9%
[5]
  %-inhibition of SRPK2: 9%
[6]
  %-inhibition of FRK: 7%
[7]
  %-inhibition of MLK1: 53%
[8]; kinase EPHA3, compound at 1 μM
  %-inhibition of EPHA3: 2%

## C[C@@H](Oc1cc(-c2cnn(C3CCNCC3)c2)cnc1N)c1c(Cl)ccc(F)c1Cl [crizotinib]
[1]
  %-inhibition, BRSK2: 8%
[2]; kinase EPHA5, compound at 1 μM
  %-inhibition of EPHA5: 71%
[3]
  %-inhibition of MAP2K4: -1.24%
[4]; kinase RAF1, 1 μM
  %-inhibition of RAF1: 11%
[5]
  %-inhibition of SRPK2: -2.33%
[6]
  %-inhibition of FRK: 26%
[7]
  %-inhibition of MLK1: 2.82%
[8]; kinase EPHA3, compound at 1 μM
  %-inhibition of EPHA3: 19%

## CCCS(=O)(=O)Nc1ccc(F)c(C(=O)c2c[nH]c3ncc(-c4ccc(Cl)cc4)cc23)c1F [vemurafenib]
[1]
  %-inhibition, BRSK2: -6%
[2]; kinase EPHA5, compound at 1 μM
  %-inhibition of EPHA5: 14%
[4]; kinase RAF1, 1 μM
  %-inhibition of RAF1: 96%
[5]
  %-inhibition of SRPK2: -2.2%
[6]
  %-inhibition of FRK: 62%
[7]
  %-inhibition of MLK1: 10%
[8]; kinase EPHA3, compound at 1 μM
  %-inhibition of EPHA3: -7.52%

## O=S(=O)(c1cccc2cnccc12)N1CCCNCC1 [fasudil]
[1]
  %-inhibition, BRSK2: 6%
[2]; kinase EPHA5, compound at 1 μM
  %-inhibition of EPHA5: -3.43%
[3]
  %-inhibition of MAP2K4: -5%
[4]; kinase RAF1, 1 μM
  %-inhibition of RAF1: 8%
[5]
  %-inhibition of SRPK2: -1.36%
[6]
  %-inhibition of FRK: -3%
[7]
  %-inhibition of MLK1: 3.31%
[8]; kinase EPHA3, compound at 1 μM
  %-inhibition of EPHA3: -7%

## CS(=O)(=O)CCNCc1ccc(-c2ccc3ncnc(Nc4ccc(OCc5cccc(F)c5)c(Cl)c4)c3c2)o1 [lapatinib]
[1]
  %-inhibition, BRSK2: 3.58%
[2]; kinase EPHA5, compound at 1 μM
  %-inhibition of EPHA5: 6%
[3]
  %-inhibition of MAP2K4: 0.409%
[4]; kinase RAF1, 1 μM
  %-inhibition of RAF1: 8%
[5]
  %-inhibition of SRPK2: 4.47%
[6]
  %-inhibition of FRK: 0.586%
[7]
  %-inhibition of MLK1: 7%
[8]; 1 µM
  %-inhibition of EPHA3: 0.372%

## COc1cc(Nc2c(C#N)cnc3cc(OCCCN4CCN(C)CC4)c(OC)cc23)c(Cl)cc1Cl [bosutinib]
[1]
  %-inhibition, BRSK2: -12%
[4]; kinase RAF1, 1 μM
  %-inhibition of RAF1: -3%
[5]
  %-inhibition of SRPK2: -9%
[6]
  %-inhibition of FRK: 94%
[7]
  %-inhibition of MLK1: 93%
[8]; kinase EPHA3, compound at 1 μM
  %-inhibition of EPHA3: 67%

## Cc1ccc(C(=O)Nc2ccc(CN3CCN(C)CC3)c(C(F)(F)F)c2)cc1C#Cc1cnc2cccnn12 [ponatinib]
[1]
  %-inhibition, BRSK2: -11%
[4]; kinase RAF1, 1 μM
  %-inhibition of RAF1: 96%
[5]
  %-inhibition of SRPK2: -3%
[6]
  %-inhibition of FRK: 100%
[7]
  %-inhibition of MLK1: 29%
[8]; kinase EPHA3, compound at 1 μM
  %-inhibition of EPHA3: 102%
